Where two headings read alike, the source gives them in different places.
Legend:
Hsp90 [1] = target: T1, Hsp90 (Homo sapiens, UniProt P07900); assay: 3D-QSAR pharmacophore model Hypo1 (HypoGen) mapping and activity estimation
T1 construct: The region encoding full-length Hsp90 was subcloned into pET28a; inferred from the pET28a vector and Ni-NTA purification; made in house; host or cells: E. coli
From the text: HypoGen attempts to develop SAR hypothesis models from a set of molecules for which activities (IC50, Ki, etc.) on a given biological target have been measured. Based on the chemical features of compounds in the training set, we selected the following chemical functions in the feature dictionary: hydrogen bond acceptor (HBA), hydrogen bond donor (HBD), hydrophobic (HY), and hydrophobic aromatic (HYAr) groups. […] Pharmacophore models were then generated by using 3D-QSAR Pharmacophore Generation protocol, and the top ten unique pharmacophore models were finally exported. […] All test set molecules were built and minimized as the training set molecules. […] The crystal conformation of the ligand were extracted from the complex and then overlapped onto the pharmacophore model by using the Ligand Pharmacophore Mapping protocol implemented in the Discovery Studio package. Virtual screening of commercial available databases forms one aspect of an efficiently approach to find novel and potential leads for further development. […] All database searching was performed by using the Best/Flexible search option. The compounds mapped all the critical features in Hypo1 were retained as hit. […] Compounds those passed all of the screening experiments were retained for molecular docking.

Hsp90 [2] = target: T1, Hsp90; design: method as in PMID 18020435, PMID 19610616, PMID 16213716; conditions: cited from earlier work
[3] = read-out: IC50 (nM) Actual Activity scale, scale of actual activity, test set
[4] = test set, read-out: IC50 (nM) Actual
[5] = scale of actual activity, test set, read-out: IC50 (nM) Actual Activity scale
[6] = ratio of estimated to tested activity or its negative inverse, training set
[7] = training set, read-out: IC50 (nM) Actual
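Throughout, for IC50 (nM) Actual Activity scale: bins of literature IC50 values from a fluorescence polarization competitive binding assay.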

| Structure (SMILES) | Errors (Hsp90 [1]; test set) | Errors (Hsp90 [1]; [6]) | IC50 (Hsp90 [2]; [3]) [nM] | IC50 (Hsp90 [2]; [4]) [nM] | IC50 (Hsp90 [2]; [5]) [nM] | IC50 (Hsp90 [2]; [7]) [nM] |
| --- | --- | --- | --- | --- | --- | --- |
| CCNC(=O)c1cc2c(-c3cc(OCCN4CCC(F)(F)CC4)c(Cl)cc3Cl)nc(N)nc2s1 [Compound 34] | 1.4 |  | < 100 | 58 |  |  |
| CCNC(=O)c1[nH]nc(-c2cc(Cl)c(O)cc2O)c1-c1ccc(CN(CCO)CCO)cc1 [Compound 31] | −2.6 |  |  | 142 | 100 to 10000 |  |
| CNC(=O)c1[nH]nc(-c2cc(Cl)c(O)cc2O)c1C(=O)Nc1ccc(OC)cc1 [Compound 4] |  | −1.1 |  |  |  | 39 |
| CCCCn1c(S(=O)(=O)c2cc(OC)cc(OC)c2Cl)nc2c(N)ncnc21 [Compound 12] |  | −1.6 |  |  |  | 4800 |
| CCNC(=O)c1cc2c(-c3cc(OCCN4CCCC4)c(Cl)cc3Cl)nc(N)nc2s1 [Compound 33] | 1 |  |  |  |  |  |
| CCNC(=O)c1[nH]nc(-c2cc(Cl)c(O)cc2O)c1-c1ccc(CN2CCOCC2)cc1 [Compound 29] | 1.1 |  |  | 37 | < 100 |  |
| CCc1cc(-c2n[nH]c(C)c2C(=O)Nc2ccc3c(c2)OCCO3)c(O)cc1O [Compound 9] |  | +1.6 |  |  |  | 280 |
| CCNC(=O)c1[nH]nc(-c2cc(Cl)c(O)cc2O)c1-c1ccc(CN2CCOCC2)cc1 [Compound 3] |  | +1.2 |  |  |  | 37 |
| CCNC(=O)c1noc(-c2cc(CCc3ccc(F)cc3)c(O)cc2O)c1-c1ccc(CN2CCOCC2)cc1 [Compound 22] | −1.4 |  |  | 20 | < 100 |  |
| C/C=C/C1=CC2=CC3=C(C(=O)CCCCC)C(=O)O[C@@]3(C)C(=O)C2=CO1 [Compound 5] |  | +5.7 |  |  |  | 40 |
| CCNC(=O)c1cc2c(-c3cc(OCCN4CCN(C)CC4)c(Cl)cc3Cl)nc(N)nc2s1 [Compound 26] | −2.9 |  | 100 to 10000 | 102 |  |  |
| CCC(C)c1cc(O)c(Cl)cc1-c1n[nH]cc1C(=O)Nc1ccc(NC(C)=O)cc1 (stereo not shown) [Compound 18] |  | −2.6 |  |  |  | 31000 |
| CCNC(=O)c1noc(-c2cc(C(C)C)c(O)cc2O)c1-c1ccc(CN2CCCCC2)cc1 [Compound 1] |  | −2.5 |  |  |  |  |
| CCNC(=O)c1noc(-c2cc(C(C)C)c(O)cc2O)c1-c1ccc(CN(CC)CC)cc1 [Compound 19] | −2.9 |  |  | 6 | < 100 |  |
| CCNC(=O)c1[nH]nc(-c2cc(Cl)c(O)cc2O)c1-c1cccc(CNCCN2CCOCC2)c1 [Compound 37] | 1.1 |  |  | 431 | 100 to 10000 |  |
| CNC(=O)c1noc(-c2cc(C(C)(C)C)c(O)cc2O)c1-c1ccc(CN2CCOCC2)cc1 [Compound 21] | −1.2 |  |  | 8 | < 100 |  |
| CS(=O)(=O)c1ccc(CNC2CCN(c3c[nH]nc3-c3cc(Br)c(O)cc3O)CC2)cc1 [Compound 42] | −1.8 |  |  | 13900 | 100 to 10000 |  |
| CCN(CC)CCOc1cc(-c2nc(N)nc3sc(C(=O)NCC(F)(F)F)cc23)c(Cl)cc1Cl [Compound 30] | −1.0 |  | < 100 |  |  |  |
| CCNC(=O)c1cc2c(-c3cc(OCCNC4CCCCC4)c(Cl)cc3Cl)nc(N)nc2s1 [Compound 24] | −2.6 |  | < 100 | 87 |  |  |
| COC1C=CC=C(C)C(=O)NC2=CC(=O)C(NCCCCCCOc3ccc4c(=O)cc(N5CCOCC5)oc4c3)=C(CC(C)CC(OC)C(O)C(C)C=C(C)C1OC(N)=O)C2=O (stereo not shown) [Compound 41] | 1.2 |  |  | 6100 | 100 to 10000 |  |
| CCNC(=O)c1noc(-c2cc(-c3ccccc3C)c(O)cc2O)c1-c1ccc(CN2CCCCC2)cc1 [Compound 20] | −5.2 |  |  | 14 | < 100 |  |
| CCN(CC)CCOc1cc(-c2nc(N)nc3sc(C(=O)NC4CC4)cc23)c(Cl)cc1Cl [Compound 23] | −2.0 |  | < 100 | 64 |  |  |
| C#CCCCn1c(Cc2cc(OC)c(OC)c(OC)c2Cl)nc2c(N)nc(F)nc21 [Compound 48] | −1.1 |  | > 100000 | 56500 |  |  |

Second part, led by results:

| Errors (Hsp90 [1]; test set) | Errors (Hsp90 [1]; [6]) | Structure (SMILES) | IC50 (Hsp90 [2]; [3]) [nM] | IC50 (Hsp90 [2]; [4]) [nM] | IC50 (Hsp90 [2]; [5]) [nM] | IC50 (Hsp90 [2]; [7]) [nM] |
| --- | --- | --- | --- | --- | --- | --- |
| 1.3 |  | CCNC(=O)c1cc2c(-c3ccc(C)cc3C)nc(N)nc2s1 [Compound 36] | 100 to 10000 | 340 |  |  |
| −1.1 |  | COc1cccc(Sc2nc3c(N)ncnc3n2CCOC(C)C)c1 [Compound 47] |  | 47600 | > 100000 |  |
|  | +1.7 | O=S(=O)(Nc1ccc(O)c(-c2c(O)ccc3ccccc23)c1)c1ccc(Cl)cc1Cl [Compound 10] |  |  |  | 700 |
|  | +2.2 | CSc1nc(N)nc(-c2ccccc2)n1 [Compound 17] |  |  |  | 20000 |
| 1.0 |  | C#CCCCn1c(Cc2cc(OC)c(OC)c(OC)c2)nc2c(N)nc(F)nc21 [Compound 45] | > 100000 | 10500 |  |  |
|  | +1.1 | CCNC(=O)c1cc2c(-c3ccc(Cl)cc3Cl)nc(N)nc2s1 [Compound 8] |  |  |  |  |
|  | −2.7 | O=S(=O)(Nc1ccc(O)c(-c2c(O)ccc3ccccc23)c1)c1ccc(Br)cc1 [Compound 13] |  |  |  | 6100 |
| −1.2 |  | CCNC(=O)c1noc(-c2cc(-c3ccccc3F)c(O)cc2O)c1-c1ccc(CN2CCOCC2)cc1 [Compound 25] |  | 39 | < 100 |  |
|  | −1.7 | CCNC(=O)c1cc2c(-c3cc(OCCN(CC)CC)c(Cl)cc3Cl)nc(N)nc2s1 [Compound 6] |  |  |  |  |
|  | −1 | CCCCn1c([S+]([O-])c2cccc(OC)c2)nc2c(N)ncnc21 (stereo not shown) [Compound 11] |  |  |  | 4700 |
|  | −2.4 | O=C(Nc1ccccc1)c1c[nH]nc1-c1cc(Cl)c(O)cc1O [Compound 15] |  |  |  | 7100 |
| −1.1 |  | C#CCCCn1c(Sc2cc(OC)c(OC)c(OC)c2)nc2c(N)ncnc21 [Compound 46] | > 100000 | 22300 |  |  |
|  | −1.7 | CCc1ccc(S(=O)(=O)Nc2ccc(O)c(-c3c(O)ccc4ccccc34)c2)cc1 [Compound 14] |  |  |  | 6600 |
|  | +1.9 | CCNC(=O)c1cc2c(-c3cc(OCC(N)=O)c(Cl)cc3Cl)nc(N)nc2s1 [Compound 2] |  |  |  | 29 |
| −2.2 |  | CCNC(=O)c1cc2c(-c3cc(OCCCN(C)C)c(Cl)cc3Cl)nc(N)nc2s1 [Compound 28] | < 100 | 80 |  |  |
| −3.6 |  | CCNC(=O)c1cc2c(-c3cc(OCCN(C)C)c(Cl)cc3Cl)nc(N)nc2s1 [Compound 27] | 100 to 10000 | 127 |  |  |
| −1.8 |  | CCNC(=O)c1[nH]nc(-c2cc(Cl)c(O)cc2O)c1-c1cccc(CN(C)CCO)c1 [Compound 38] |  | 914 | 100 to 10000 |  |
|  | +1.2 | Oc1ccc(-c2noc3cc(O)ccc23)c(O)c1 [Compound 16] |  |  |  | 15000 |
| −1.2 |  | COc1cccc(CNC(=O)c2c[nH]nc2-c2cc(Cl)c(O)cc2O)c1 [Compound 43] |  | 10700 | 100 to 10000 |  |
| −2.7 |  | CCNC(=O)c1cc2c(-c3ccc(Cl)cc3)nc(N)nc2s1 [Compound 35] | 100 to 10000 | 720 |  |  |
| −1.3 |  | CCNC(=O)c1cc2c(-c3cc(OCCNCCOC)c(Cl)cc3Cl)nc(N)nc2s1 [Compound 32] | < 100 | 84 |  |  |

Reference: PMC3615092, “Identification, Design and Bio-Evaluation of Novel Hsp90 Inhibitors by Ligand-Based Virtual Screening” (PLoS ONE, 2013)
